Test results as given in PubChem BioAssay AID2060609 (Molecular Pharmacology Branch, DTP, NCI, 2025).

Tested on: 855422-203-R-J1-PDC complex spheroids, viability
Assay: Anticancer human tumor 855422-203-R-J1-PDC patient-derived bladder carcinoma cell line growth inhibition [CLK]
Conditions: for IC50: curve of first compound; for viability, T/C: stronger effect = lower value
How it was run: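 Multi-cell-type spheroids combined patient-derived tumor cells with HUVEC endothelial cells and human mesenchymal stem cells. Paired agents were dosed in half-log steps down from about clinical Cmax, or from 10 microM where Cmax was unknown.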
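Also: spheroids exposed to drugs for seven days before readout.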
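For viability, T/C in this document: 100% = DMSO vehicle control wells.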

C=CC(=O)Nc1cc(Nc2nccc(-c3cn(C)c4ccccc34)n2)c(OC)cc1N(C)CCN(C)C + CNC(=O)c1ccc(Nc2nc(OC3CCCC3)c3c(-c4ccc5nc(C)oc5c4)c[nH]c3n2)c(OC)c1
IC50 (second compound 0.0316 µM): > 300 nM | IC50 (second compound 0.1 µM): 1.17 nM | IC50 (second compound 0.316 µM): < 0.949 nM | IC50 (second compound 1 µM): < 0.949 nM | IC50 (second compound 3.16 µM): < 0.949 nM | IC50 (second compound 10 µM): < 0.949 nM | viability, T/C (second compound 0.0316 µM, first compound 0.000949 µM): 108% | viability, T/C (second compound 0.0316 µM, first compound 0.003 µM): 112% | viability, T/C (second compound 0.0316 µM, first compound 0.00949 µM): 109% | viability, T/C (second compound 0.0316 µM, first compound 0.03 µM): 97.1% | viability, T/C (second compound 0.0316 µM, first compound 0.0949 µM): 98.8% | viability, T/C (second compound 0.0316 µM, first compound 0.3 µM): 76.3% | viability, T/C (second compound 0.1 µM, first compound 0.000949 µM): 53.6% | viability, T/C (second compound 0.1 µM, first compound 0.003 µM): 33.9% | viability, T/C (second compound 0.1 µM, first compound 0.00949 µM): 29.3% | viability, T/C (second compound 0.1 µM, first compound 0.03 µM): 29.2% | viability, T/C (second compound 0.1 µM, first compound 0.0949 µM): 28.6% | viability, T/C (second compound 0.1 µM, first compound 0.3 µM): 22.4% | viability, T/C (second compound 0.316 µM, first compound 0.000949 µM): 21.3% | viability, T/C (second compound 0.316 µM, first compound 0.003 µM): 22.4% | viability, T/C (second compound 0.316 µM, first compound 0.00949 µM): 19.1% | viability, T/C (second compound 0.316 µM, first compound 0.03 µM): 21.8% | viability, T/C (second compound 0.316 µM, first compound 0.0949 µM): 24% | viability, T/C (second compound 0.316 µM, first compound 0.3 µM): 20.1% | viability, T/C (second compound 1 µM, first compound 0.000949 µM): 19.4% | viability, T/C (second compound 1 µM, first compound 0.003 µM): 21% | viability, T/C (second compound 1 µM, first compound 0.00949 µM): 27.3% | viability, T/C (second compound 1 µM, first compound 0.03 µM): 23.5% | viability, T/C (second compound 1 µM, first compound 0.0949 µM): 22% | viability, T/C (second compound 1 µM, first compound 0.3 µM): 16.2% | viability, T/C (second compound 3.16 µM, first compound 0.000949 µM): 25.8% | viability, T/C (second compound 3.16 µM, first compound 0.003 µM): 23.1% | viability, T/C (second compound 3.16 µM, first compound 0.00949 µM): 20.8% | viability, T/C (second compound 3.16 µM, first compound 0.03 µM): 21.9% | viability, T/C (second compound 3.16 µM, first compound 0.0949 µM): 21.9% | viability, T/C (second compound 3.16 µM, first compound 0.3 µM): 16.5% | viability, T/C (second compound 10 µM, first compound 0.000949 µM): 19.7% | viability, T/C (second compound 10 µM, first compound 0.003 µM): 21.6% | viability, T/C (second compound 10 µM, first compound 0.00949 µM): 18.3% | viability, T/C (second compound 10 µM, first compound 0.03 µM): 19.1% | viability, T/C (second compound 10 µM, first compound 0.0949 µM): 23.3% | viability, T/C (second compound 10 µM, first compound 0.3 µM): 21.9%
